Assay results as given in PMC2360155, “Novel retinoic acid metabolism blocking agents have potent inhibitory activities on human breast cancer cells and tumour growth” (British Journal of Cancer, 2007).
“Also recorded” adds a separate entry of the source.

Test system: MCF-7Ca tumour xenografts
Experiment: In vivo antitumour study, MCF-7Ca tumour xenografts
Design: species or system ovariectomised female athymic nude mice
Settings: for Prevention of formation of MCF-7Ca tumours (in words): 20 mg kg^−1 day^−1 from the day after inoculation
Experimental: The third in vivo antitumour experiment was conducted with MCF-7Ca tumours. MCF-7Ca were provided by Dr S Chen (City of Hope, Duarte, CA, USA). The tumour xenografts were grown in mice as described previously ([Yue et al, 1994]). Subconfluent cells were scraped into Delbecco's phosphate-buffered saline, collected by centrifugation and resuspended in Matrigel (10 mg ml^−1) at 2.5 × 10^7 cells ml^−1. Each mouse received s.c. inoculations in two sites per flank with 100 μl of cell suspension. Mice in the tumour formation prevention group (n=5) were than injected daily with androstenedione (100 μg day^−1) plus VN/14-1 (20 mg kg^−1 day^−1) in the vehicle for the duration of the experiment. The rest of the mice were injected daily with 100 μg day^−1 of androstenedione. Measurements and treatments began when the tumours reached approximately 300 mm^3, about 6 weeks after cell inoculation. Mice were assigned to groups for treatment so that there was no statistically significant difference in tumour volumes among the groups at the beginning of the treatment. Tumours were measured and volumes calculated as described above. Mice were than injected s.c. daily with the indicated agents: 100 μg per mouse per day (5 × weekly) plus 10 μg per mouse per day (5 × weekly) of letrozole or 200 μg per mouse per day (5 × weekly) of anastrozole and 20 mg kg^−1 day^−1 (5 × weekly) of VN/14-1. The doses of letrozole, anastrozole, androstendione and VN/14-1 used are as determined previously ([Long et al, 2002], [2004]; [Patel et al, 2004]). The mice were treated for the indicated times, after which they were killed by decapitation and blood collected. Tumours and uteri were excised, cleaned, weighed and stored at −80°C for additional analyses.
Figure 10 Effects of VN/14-1 on the formation of MCF-7Ca tumours and effects of VN/14-1, anastrozole and letrozole on the growth of MCF-7Ca xenografts in ovariectomised female athymic nude mice. Mice were inoculated with MCF-7Ca cells as described in Materials and Methods. Beginning on the following day, androstendione (100 μg per mouse per day) was supplemented by s.c. injection for the duration of the experiment. For the tumour formation prevention group (n=5), VN/14-1 (20 mg kg^−1 day^−1) treatment began from the day after inoculation. For the other groups (VN/14-1, anastrazole and letrozole), treatment began after the tumour had reached approximately 300 mm^3 following procedures described in Materials and Methods.

SMILES: CC1=C(/C=C/C(C)=C/C=C/C(C)=C/C(=O)O)C(C)(C)CCC1n1ccnc1 (stereo not shown) [VN/14-1]
- Prevention of formation of MCF-7Ca tumours (in words): very effective in preventing the formation of MCF-7Ca tumours
- Prevention of formation of MCF-7Ca tumours (in words) (listed as VN14-1): efficacious in preventing the formation of MCF-7Ca tumours
- Inhibition of growth of established MCF-7Ca tumours (in words) (20 mg kg^−1 day^−1 s.c. (5 × weekly), androstenedione supplemented): as effective as the clinically used aromatase inhibitors, anastrozole and letrozole; also recorded: as effective as either anastrozole or letrozole
- Uterine wet weight (VN/14-1 treatment, data not shown): significant reduction in uterine wet weight
